pIC50, pKi: −log10 of the molar value. Where two headings read alike, the source gives them in different places.
Experiments:
[1] = system: Aβ production in Chinese hamster ovary cells that over-express human APP695 with the London and Swedish mutations; assay: Cellular Aβ IC50 determination (Aβ40 sandwich ELISA); format: cell-based; details: Cricetulus griseus
Method in brief: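 CHO cells overexpressing human APP695 with London and Swedish mutations, seeded at 10% confluency, treated with compounds up to about 4 μM final (0.4% DMSO). Secreted Aβ40 measured by sandwich ELISA relative to control and fitted to a 4-parameter IC50 model.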

memapsin 2 = memapsin 2 (Homo sapiens, UniProt P56817); assay: Inhibition of memapsin 2 beta-secretase activity (fluorogenic substrate FS-2); format: biochemical; details: memapsin 2, pH 4, 37° C., 20 minutes pre-incubation; read-out: M2Ki
Method in brief: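 Memapsin 2 pre-incubated 20 min with compound at pH 4, 37° C, then FS-2 substrate (MCA-SEVNLDAEFK-DNP, APP Swedish cleavage site) added. Rate of fluorescence increase compared with uninhibited controls, fitted to a tight-binding inhibition model.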

[2] = cellular Aβ production, read-out: IC50

Sequence of memapsin 2 (P56817 46-501): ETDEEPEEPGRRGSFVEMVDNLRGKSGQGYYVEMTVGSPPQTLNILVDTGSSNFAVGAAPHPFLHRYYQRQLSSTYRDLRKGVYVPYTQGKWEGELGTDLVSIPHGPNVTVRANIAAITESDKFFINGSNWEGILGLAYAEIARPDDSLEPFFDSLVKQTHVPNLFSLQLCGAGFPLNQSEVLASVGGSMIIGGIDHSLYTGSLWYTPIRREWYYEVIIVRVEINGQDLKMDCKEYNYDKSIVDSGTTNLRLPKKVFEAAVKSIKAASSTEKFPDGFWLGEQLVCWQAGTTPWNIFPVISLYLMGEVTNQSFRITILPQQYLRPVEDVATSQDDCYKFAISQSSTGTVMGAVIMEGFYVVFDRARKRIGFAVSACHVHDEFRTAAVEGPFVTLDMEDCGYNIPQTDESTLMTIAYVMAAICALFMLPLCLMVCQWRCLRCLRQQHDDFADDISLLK

Compound	pIC50 [1, 2]	pKi (memapsin 2)	pIC50 [1]
Cc1csc(CN(C)C(=O)c2cccc(C(=O)N[C@@H](Cc3cscn3)[C@H](O)CNCc3cncc(C(C)C)c3)c2)n1 [Compound 183, N1-((2S,3R)-3-hydroxy-4-((5-isopropylpyridin-3-yl)methylamino)-1-(thiazol-4-yl)butan-2-yl)-N3-methyl-N3-((4-methylthiazol-2-yl)methyl)isophthalamide]	5.30 to 6.00	6.30 to 6.52	
Cc1csc(CN(C)C(=O)c2cccc(C(=O)N[C@@H](Cc3ccccc3)[C@H](O)CNCc3cccc(C(C)(C)O)c3)c2)n1 [Compound 184, N1-((2S,3R)-3-hydroxy-4-(3-(2-hydroxypropan-2-yl)benzylamino)-1-phenylbutan-2-yl)-N3-methyl-N3-((4-methylthiazol-2-yl)methyl)isophthalamide]	> 6.00	> 6.52	
Cc1csc(CN(C)C(=O)c2cccc(C(=O)N[C@@H](Cc3ccccc3)[C@H](O)CNCc3cc(N(C)C)cc(N(C)C)c3)c2)n1 [Compound 185, N1-((2S,3R)-4-(3,5-bis(dimethylamino)benzylamino)-3-hydroxy-1-phenylbutan-2-yl)-N3-methyl-N3-((4-methylthiazol-2-yl)methyl)isophthalamide]	> 6.00	> 6.52	
Cc1csc(CN(C(=O)c2cc(C(=O)N[C@@H](Cc3ccccc3)[C@H](O)CNCc3cncc(C(C)C)c3)cc(-c3ncco3)c2)C2CC2)n1 [Compound 186, N1-cyclopropyl-N3-((2S,3R)-3-hydroxy-4-((5-isopropylpyridin-3-yl)methylamino)-1-phenylbutan-2-yl)-N1-((4-methylthiazol-2-yl)methyl)-5-(oxazol-2-yl)isophthalamide]	> 6.00	> 6.52	
COc1cccc(CNC[C@@H](O)[C@H](Cc2ccccc2)NC(=O)c2cc(C(=O)NCc3nc(C)cs3)cc(N3CCCC3)c2)c1 [Compound 187, N1-((2S,3R)-3-hydroxy-4-(3-methoxybenzylamino)-1-phenylbutan-2-yl)-N3-((4-methylthiazol-2-yl)methyl)-5-(pyrrolidin-1-yl)isophthalamide]	< 5.30	> 6.52	
CCS(=O)(=O)c1cc(CNC[C@@H](O)[C@H](Cc2ccccc2)NC(=O)c2cccc(C(=O)N(C)Cc3nc(C)cs3)c2)cc(C(C)C)c1 [Compound 188, N1-((2S,3R)-4-(3-(ethylsulfonyl)-5-isopropylbenzylamino)-3-hydroxy-1-phenylbutan-2-yl)-N3-methyl-N3-((4-methylthiazol-2-yl)methyl)isophthalamide]	> 6.00	> 6.52	
COc1cccc(CNC[C@@H](O)[C@H](Cc2ccccc2)NC(=O)c2cc(C(=O)N(C)Cc3nc(C)cs3)cc(-c3cccnc3)c2)c1 [Compound 189, N1-((2S,3R)-3-hydroxy-4-(3-methoxybenzylamino)-1-phenylbutan-2-yl)-N3-methyl-N3-((4-methylthiazol-2-yl)methyl)-5-(pyridin-3-yl)isophthalamide]	> 6.00	> 6.52	
Cc1csc(CN(C)C(=O)c2cccc(C(=O)N[C@@H](Cc3ccccc3)[C@H](O)CNCc3cncc(C(C)(C)C)c3)c2)n1 [Compound 190, N1-((2S,3R)-4-((5-tert-butylpyridin-3-yl)methylamino)-3-hydroxy-1-phenylbutan-2-yl)-N3-methyl-N3-((4-methylthiazol-2-yl)methyl)isophthalamide]	> 6.00	> 6.52	
Cc1csc(CN(C)C(=O)c2cccc(C(=O)N[C@@H](Cc3ccccc3)[C@H](O)CNCc3cccc(N)c3)c2)n1 [Compound 191, N1-((2S,3R)-4-(3-aminobenzylamino)-3-hydroxy-1-phenylbutan-2-yl)-N3-methyl-N3-((4-methylthiazol-2-yl)methyl)isophthalamide]	< 5.30	< 6.30	
Cc1csc(CN(C)C(=O)c2cc(CO)cc(C(=O)N[C@@H](Cc3ccccc3)[C@H](O)CNCc3cncc(C(C)C)c3)c2)n1 [Compound 192, N1-((2S,3R)-3-hydroxy-4-((5-isopropylpyridin-3-yl)methylamino)-1-phenylbutan-2-yl)-5-(hydroxymethyl)-N3-methyl-N3-((4-methylthiazol-2-yl)methyl)isophthalamide]	> 6.00	> 6.52	
CC(=O)Nc1cc(CNC[C@@H](O)[C@H](Cc2ccccc2)NC(=O)c2cccc(C(=O)N(C)Cc3nc(C)cs3)c2)cc(C(C)C)c1 [Compound 193, N1-((2S,3R)-4-(3-acetamido-5-isopropylbenzylamino)-3-hydroxy-1-phenylbutan-2-yl)-N3-methyl-N3-((4-methylthiazol-2-yl)methyl)isophthalamide]	> 6.00	> 6.52	
COc1cccc(CNC[C@@H](O)[C@H](Cc2ccccc2)NC(=O)c2cc(C(=O)N(C)Cc3nc(C)cs3)cc(N3CCCC3=O)c2)c1 [Compound 194, N1-((2S,3R)-3-hydroxy-4-(3-methoxybenzylamino)-1-phenylbutan-2-yl)-N3-methyl-N3-((4-methylthiazol-2-yl)methyl)-5-(2-oxopyrrolidin-1-yl)isophthalamide]	> 6.00	> 6.52	
Cc1csc(CN(C)C(=O)c2cc(C(=O)N[C@@H](Cc3ccccc3)[C@H](O)CNCc3cncc(C(C)C)c3)cc(N3CCCC3=O)c2)n1 [Compound 195, N1-((2S,3R)-3-hydroxy-4-((5-isopropylpyridin-3-yl)methylamino)-1-phenylbutan-2-yl)-N3-methyl-N3-((4-methylthiazol-2-yl)methyl)-5-(2-oxopyrrolidin-1-yl)isophthalamide]	> 6.00	> 6.52	
Cc1csc(CN(C)C(=O)c2cccc(C(=O)N[C@@H](Cc3ccccc3)[C@H](O)CNCc3cc(-c4ccccc4)on3)c2)n1 [Compound 196, N1-((2S,3R)-3-hydroxy-1-phenyl-4-((5-phenylisoxazol-3-yl)methylamino)butan-2-yl)-N3-methyl-N3-((4-methylthiazol-2-yl)methyl)isophthalamide]	> 6.00	> 6.52	
Cc1csc(CNC(=O)c2cc(C(=O)N[C@@H](Cc3ccccc3)[C@H](O)CNCc3cncc(C(C)C)c3)cc(-c3ncco3)c2)n1 [Compound 197, N1-((2S,3R)-3-hydroxy-4-((5-isopropylpyridin-3-yl)methylamino)-1-phenylbutan-2-yl)-N3-((4-methylthiazol-2-yl)methyl)-5-(oxazol-2-yl)isophthalamide]	> 6.00	> 6.52	
Cc1csc(CN(C)C(=O)c2cccc(C(=O)N[C@@H](Cc3ccccc3)[C@H](O)CNCc3cc(OC(=O)N(C)C)cc(C(C)C)c3)c2)n1 [Compound 198, 3-(((2R,3S)-2-hydroxy-3-(3-(methyl((4-methylthiazol-2-yl)methyl)carbamoyl)benzamido)-4-phenylbutylamino)methyl)-5-isopropylphenyl dimethylcarbamate]		> 6.52	> 6.00
COc1cccc(CNC[C@@H](O)[C@H](Cc2ccccc2)NC(=O)c2cc(C(=O)NCc3nc(C)cs3)cc(N3CCCC3=O)c2)c1 [Compound 199, N1-((2S,3R)-3-hydroxy-4-(3-methoxybenzylamino)-1-phenylbutan-2-yl)-N3-((4-methylthiazol-2-yl)methyl)-5-(2-oxopyrrolidin-1-yl)isophthalamide]	< 5.30	< 6.30	
Cc1csc(CN(C)C(=O)c2cc(C(=O)N[C@@H](Cc3ccccc3)[C@H](O)CNCc3cncc(C(C)C)c3)cc(-c3cccnc3)c2)n1 [Compound 200, N1-((2S,3R)-3-hydroxy-4-((5-isopropylpyridin-3-yl)methylamino)-1-phenylbutan-2-yl)-N3-methyl-N3-((4-methylthiazol-2-yl)methyl)-5-(pyridin-3-yl)isophthalamide]	> 6.00	> 6.52	
COc1cccc([C@@H](C)NC[C@@H](O)[C@H](Cc2ccccc2)NC(=O)c2cc(C(=O)N[C@H](C)c3ccccc3)cc(N(C)S(C)(=O)=O)c2)c1 [Compound 201, N1-((2S,3R)-3-hydroxy-4-((R)-1-(3-methoxyphenyl)ethylamino)-1-phenylbutan-2-yl)-5-(N-methylmethylsulfonamido)-N3-((R)-1-phenylethyl)isophthalamide]	> 6.00	> 6.52	
COC(=O)Nc1cc(CNC[C@@H](O)[C@H](Cc2ccccc2)NC(=O)c2cccc(C(=O)N(C)Cc3nc(C)cs3)c2)cc(C(C)C)c1 [Compound 202, methyl 3-(((2R,3S)-2-hydroxy-3-(3-(methyl((4-methylthiazol-2-yl)methyl)carbamoyl)benzamido)-4-phenylbutylamino)methyl)-5-isopropylphenylcarbamate]	> 6.00	> 6.52	
Cc1csc(CN(C)C(=O)c2cc(C(=O)N[C@@H](Cc3ccccc3)[C@H](O)CNCc3cncc(C(C)C)c3)cc(C(F)F)c2)n1 [Compound 204, 5-(difluoromethyl)-N1-((2S,3R)-3-hydroxy-4-((5-isopropylpyridin-3-yl)methylamino)-1-phenylbutan-2-yl)-N3-methyl-N3-((4-methylthiazol-2-yl)methyl)isophthalamide]	> 6.00	> 6.52	
Cc1csc(CN(C)C(=O)c2cc(C(=O)N[C@@H](Cc3ccccc3)[C@H](O)CNCc3cncc(C(C)C)c3)cc(-c3ccncc3)c2)n1 [Compound 205, N1-((2S,3R)-3-hydroxy-4-((5-isopropylpyridin-3-yl)methylamino)-1-phenylbutan-2-yl)-N3-methyl-N3-((4-methylthiazol-2-yl)methyl)-5-(pyridin-4-yl)isophthalamide]	> 6.00	> 6.52	
Cc1csc(CN(C)C(=O)c2cccc(C(=O)N[C@@H](Cc3ccccc3)[C@H](O)CN[C@H](C)c3cncc(C(C)C)c3)c2)n1 [Compound 206, N1-((2S,3R)-3-hydroxy-4-((R)-1-(5-isopropylpyridin-3-yl)ethylamino)-1-phenylbutan-2-yl)-N3-methyl-N3-((4-methylthiazol-2-yl)methyl)isophthalamide]	> 6.00	> 6.52	
